Where no end group is shown, it is not given here.
Assays:
α-SMA mRNA = experiment: RT-PCR of α-SMA mRNA expression in HSC; assay type: cell-based, SD rat; details: after 48 hours, FIG. 4
Protocol: (§1) HSC from SD rats were separated using centrifuging on gradient created by Pronase-collagenase and Nycodenz. HSC cells at 1.5×10^5/cm2 was plated at 6-well plate, or culture dish (100 mm diameter). The culture medium is DMEM with 20% serum from newborn calf. The purity of HSC cells was determined using Vitamin A self-fluorescence and anti-Desmin immunocytochemistry experiments. Cell viability was determined using trypan blue staining. First generation HSC's purity and viability were 90% and 95% respectively. HSC can self-activate if grown in non-ECM condition, which means HSC can express α-SMA, and Vitamin A drop disappears. After cell fusion, activated HSC is released with trypsin, and propagate.
Use Trizol reagent to extract total RNA, then conduct two-step RT-PCR according to kit instructions.

α-SMA protein = experiment: Western blot of α-SMA protein expression in HSC; assay type: cell-based, SD rat; details: FIG. 5
Protocol: as §1
Collect cells and add cell lysis buffer, extract total protein. Total protein amount was determined using Bradford assay. 40 μg total protein was examined using 10% SDS polyacrylamide gel. The gel was probed using monoclonal antibody against α-SMA.

BEL-7402 = assay type: cell-based, Human; details: 72 h
Protocol: (§2) 2. Cell Lines • Human liver cancer cell line (SMMC-7721, BEL-7402, BEL-7402) were purchased from National Medical Academy of Sciences Tissue Bank and Chinese Academy of Sciences, Shanghai Cell line Research Institute.
(§3) 3. Cell Culture • All cell lines were incubated at 37C, 5% CO2 incubator with saturated humidity. Culture media was RPMI1640 media with 10% heat inactivated FBS, penicillin 100 u/ml, streptomycin 100 u/ml. After 48 hours media was changed. Cells were released with 0.25% trypsin and propagate. Cells used in the experiment were in log phase. Cell viability was determined using trypan blue staining.
(§4) 4. Methods • Take cells at log phase and release with 0.125% trypsin+0.01% EDTA and dilute cells to 2-4×10^4 cells/ml. Cells were placed in 96 well plate (180 ul/well), and were incubated at 37 C CO2 incubator for 24 hours. Media was changed, then peptide SEQ ID No:1 was added to the well (20 ul/well), incubate for 72 hours. Add MTT into 96 well plate (20 ul/well), and incubate for 4 hours. Media was removed, add DMSO (150 ul/well). The plate was shaken for 10 minutes. 7 concentration points (0.1 to 10 uM) was examined. Absorbance at 570 nm was measured for each well to calculate the IC50. IC50=(O.D. at well with no peptide−O.D. at well with peptide)/O.D. at well with no peptide

BEL-7404 = assay type: cell-based, Human; details: 72 h
Protocol: as §2, §3, §4

SMMC-7721 = assay type: cell-based, Human; details: 72 h
Protocol: as §2, §3, §4

[1] = test system: human breast cancer MDA-MB-435; experiment: Human breast cancer MDA-MB-435 xenograph nude mice; assay type: in vivo; details: 0.5 mg/kg IV, 6 times a week, 4 weeks
Protocol: (§5) Experimental animals: Female BALB/cA nude mice, age 35-40 days, weight 18-22 g, provided by Shanghai Silaike Experimental Animal Co. Ltd., certificate number: SOCK (Shanghai) 2007-0005.
(§6) The tumor of xenograph nude mice grew to 100˜300 mm^3. Tumor mice were divided into different groups for drug testing. In the experiment below, there were 12 nude mice in negative control group, and 6 nude mice in the group with tested drug. Tumor diameter was measured three times each week, and mice weight was measured at the same time.
(§7) T/C (relative tumor inhibition rate) % was calculated as below: • (1) tumor volume, TV, calculated as below: TV=½×a×b^2 • A and b are length and width. • (2) relative tumor volume, RTV, calculated as below: RTV=TVt/TV0. • TV0 ? is tumor volume at the beginning of drug use (d0), TVt is tumor volume at later time point. • (3) relative tumor inhibition rate T/C (%), calculate as below:
(§8) [formula] TRTV: treatment group RTV; CRTV: negative control RTV
Peptide SEQ ID No:1 was given through tail vein (IV), at dosing of 2 mg/kg, 1 mg/kg, 0.5 mg/kg, 6 times a week. Docetaxol was positive control, at dosing of 20 mg/kg, once a week. Negative control was given saline solution. The xenograph nude mice were treated for 4 weeks.

human lung cancer A549 = experiment: Human lung cancer A549 xenograph nude mice; assay type: in vivo; details: 6 times a week, 3 weeks
Protocol: as §5, §6, §7, §8
Peptide SEQ ID No:1 was given through tail vein (IV), at dosing of 0.5 mg/kg, 0.25 mg/kg, and 0.125 mg/kg, 6 times a week. Docetaxol was positive control, at dosing of 20 mg/kg, once a week. Negative control was given saline solution. The xenograph nude mice were treated for 3 weeks.

[2] = Mice weight in xenograph tumor mice models; assay type: in vivo, BALB/cA nude mice; details: all the xenograph tumor mice models, different concentration
Protocol: as §6

[3] = test system: human liver cancer cell BEL-7402; experiment: Migration of liver cancer cells through base membrane; assay type: cell-based
Protocol: Peptide SEQ ID No:1 from example 1 can inhibit human liver cancer cell BEL-7402 migration from base membrane, at 0.01, 0.1, or 1 mg/ml (12 hour incubation).

[4] = test system: human liver cancer cell BEL-7402; experiment: Cancer cell attachment to base membrane; assay type: cell-based; details: incubated with cancer cells for 12 hours, FIG. 6
[5] = test system: phosphorylation of Erk1/2; experiment: Western blot, PDGFR intracellular Ras-Raf signaling pathway in HUVEC; assay type: cell-based, Human; details: 6 hours, 10 ug/ml (2 uM)
Protocol: Various concentration of Peptide SEQ ID No:1 was incubated with Human Umbilical Vein Endothelial Cells (HUVEC) cells for 6 hours. Protein was extracted from these cells and western blot was performed. Antibody for p-stat1: Antibody against phophorylated-Tyr701; Antibody for p-MEK1/2: Antibody against phophorylated-Ser217/221 peptide; Antibody for p-Erk1/2: Antibody against phophorylated-Ser202/204. beta-Actin was a control to make sure all lanes are loaded with same amount of protein.

## SKVTKKYHEVLQLRPKTGVRGLHKSLTDVALEHHEECDCVCRGSTGG-OH (cysteines drawn unpaired) [Peptide SEQ ID NO:1]
α-SMA mRNA
  α-SMA mRNA expression (RT-PCR): inhibits α-SMA mRNA expression
α-SMA protein; after 48 hours
  α-SMA protein expression (Western Blot): starts to decrease α-SMA protein expression
α-SMA protein; after 72 hours
  α-SMA protein expression (Western Blot): significantly decrease α-SMA protein expression
BEL-7402
  IC50: 1.78 µM
BEL-7404
  IC50: 2.33 µM
SMMC-7721
  IC50: 1.25 µM
[1]
  T/C(%) relative tumor inhibition rate: 49.40%
Human lung cancer A549; 0.125 mg/kg IV
  T/C(%) relative tumor inhibition rate: 48.96%
Human lung cancer A549; 0.25 mg/kg IV
  T/C(%) relative tumor inhibition rate: 47.98%
[2]
  weight of the mice: not affected
[3]; BEL-7402, 0.01, 0.1, or 1 mg/ml, 12 hour incubation
  migration from base membrane: can inhibit
[3]; incubated with cancer cells for 12 hours, FIG. 7
  cancer cell migration ability through base membrane: inhibits cancer cell migration ability through base membrane
[4]
  cancer cell attachment to base membrane: inhibited cancer cell attachment to base membrane
[5]
  phosphorylation of Erk1/2 (western blot): significantly inhibits phosphorylation of Erk1/2

Reference: US8637467B2, “Pharmaceutical being used for treating cancer and fibrosis disease and the composition and uses thereof” (Wuxi MTLH Biotechnology Co., Ltd., priority 2008, dated 2014)
